From PubChem BioAssay (NCI)
Where “and” joins values, the source holds several entries; their conditions need not be identical. Equal values may be shown once.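 Test compounds were applied to cells in 96-well plates for 48 hours at 5 doses. GI50 = concentration required for 50% inhibition of growth. TGI: concentration producing complete growth inhibition.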

Assays:
Assay in all cases: growth of human tumour cells (NCI), 48 h
[1] = test system: NCI-H460 lung
[2] = test system: SF-268 CNS
[3] = test system: SK-OV-3 ovarian
[4] = test system: MDA-MB-435
[5] = test system: SF-539 CNS
[6] = test system: OVCAR-4 ovarian
[7] = test system: RPMI-8226 leukemia
[8] = test system: SNB-75 CNS

Compound: COc1ccc2cc(-c3cnc4nonc4n3)ccc2c1
- GI50 [1]: 11 µM
- TGI [1]: > 100 µM
- GI50 [2]: 8.59 µM
- TGI [2]: > 100 µM
- GI50 [3]: 10.8 µM
- TGI [3]: > 100 µM
- GI50 [4]: 1 µM
- TGI [4]: 3.35 µM
- GI50 [5]: 0.825 µM
- TGI [5]: 4.88 µM
- GI50 [6]: 5.99 µM
- TGI [6]: > 100 µM
- GI50 [7]: 0.685 µM
- TGI [7]: 17.5 µM

Compound: CCC1=C(c2ccc(OC)cc2)C(C)(C)Oc2c1ccc(O)c2CN1CCCC1
- GI50 [1]: 1.7 µM
- TGI [1]: 3.59 µM
- GI50 [2]: 8.8 µM
- TGI [2]: > 100 µM
- GI50 [3]: 8.23 µM
- TGI [3]: > 100 µM
- GI50 [4]: 1.71 µM
- TGI [4]: 4.03 µM
- GI50 [5]: 3.05 µM
- TGI [5]: 17.2 µM
- GI50 [6]: 2.16 µM
- TGI [6]: 29 µM
- GI50 [7]: 0.721 µM
- TGI [7]: 2.45 µM
- GI50 [8]: 1.66 µM
- TGI [8]: 87.4 µM

Compound: O=S(=O)(N=C1C(Cl)=C(Cl)C(=NS(=O)(=O)c2ccccc2)C(Cl)=C1Cl)c1ccccc1
- GI50 [1]: 17.4 µM
- TGI [1]: 36.7 µM
- GI50 [2]: 16 µM
- TGI [2]: 42.2 µM
- GI50 [3]: 43.2 µM
- TGI [3]: > 100 µM
- GI50 [4]: 20.1 µM
- TGI [4]: 68.3 µM
- GI50 [5]: 45.6 µM
- TGI [5]: > 100 µM
- GI50 [6]: 22.1 µM
- TGI [6]: > 100 µM
- GI50 [7]: 23.9 µM
- TGI [7]: > 100 µM
- GI50 [8]: 23.5 µM
- TGI [8]: > 100 µM

Compound: C[C@@H]1C[C@H](N)C[C@H](c2ccncc2NC(=O)c2ccc(F)c(-c3c(F)cccc3F)n2)C1
- GI50 [1]: 13.7 µM and > 10 µM
- TGI [1]: 28.7 µM and > 10 µM
- GI50 [2]: 10.8 µM and > 10 µM
- TGI [2]: 25.3 µM and > 10 µM
- GI50 [3]: 12.7 µM and > 10 µM
- TGI [3]: 26.8 µM and > 10 µM
- GI50 [4]: 10.4 µM and 9.19 µM
- TGI [4]: 22.1 µM and > 10 µM
- GI50 [5]: 11.3 µM and > 10 µM
- TGI [5]: 23.5 µM and > 10 µM
- GI50 [6]: 9.39 µM and > 10 µM
- TGI [6]: 22 µM and > 10 µM
- GI50 [7]: 0.592 µM and 0.939 µM
- TGI [7]: 11.4 µM and > 10 µM
- GI50 [8]: 2.55 µM and 4.3 µM
- TGI [8]: 18.2 µM and > 10 µM

Compound: COc1cc(-n2ccnc2-c2ccc3ccccc3c2)cc(OC)c1OC
- GI50 [1]: 0.0373 µM
- TGI [1]: 14.7 µM
- GI50 [2]: 0.182 µM
- TGI [2]: 49.8 µM
- GI50 [3]: 0.13 µM
- TGI [3]: 24.7 µM
- TGI [4]: 0.124 µM
- GI50 [5]: 0.099 µM
- TGI [5]: 2.06 µM
- GI50 [6]: 6.32 µM
- TGI [6]: > 86.2 µM
- GI50 [7]: 0.292 µM
- TGI [7]: 20.6 µM
- GI50 [8]: 0.123 µM
- TGI [8]: 36.8 µM

Compound: Cc1ccc(OCC2CO2)c(Br)c1 (centres undefined)
- TGI [1]: 66 µM
- TGI [2]: 42.6 µM
- TGI [3]: 58.5 µM
- TGI [4]: 48.2 µM
- TGI [5]: 29.9 µM
- TGI [6]: 29.4 µM
- TGI [7]: 74.9 µM

Compound: NCCCCC(NC(=O)C(N)CCCN=C(N)N)C(=O)NC(CCCCN)C(=O)NC(CCCN=C(N)N)C(=O)NC(CCCN=C(N)N)C(=O)NC(CCC(N)=O)C(=O)NC(CCCN=C(N)N)C(=O)NC(CCCN=C(N)N)C(=O)NC(CCCN=C(N)N)C(=O)NCC(=O)NCC(=O)O (centres undefined)
- GI50 [1]: > 50 µM
- TGI [1]: > 50 µM
- GI50 [2]: > 50 µM
- TGI [2]: > 50 µM
- GI50 [3]: > 50 µM
- TGI [3]: > 50 µM
- GI50 [4]: > 50 µM
- TGI [4]: > 50 µM
- GI50 [5]: > 50 µM
- TGI [5]: > 50 µM
- GI50 [6]: > 50 µM
- TGI [6]: > 50 µM
- GI50 [7]: > 50 µM
- TGI [7]: > 50 µM
- GI50 [8]: > 50 µM
- TGI [8]: > 50 µM

Compound: CCSC[C@@H]1C[C@](O)(c2ccc(Cl)cc2)[C@@H](c2ccc(Cl)cc2)O1
- GI50 [1]: 17.3 µM
- TGI [1]: 34.1 µM
- GI50 [2]: 18.5 µM
- TGI [2]: 35.7 µM
- GI50 [3]: 22.4 µM
- TGI [3]: 60.2 µM
- GI50 [4]: 19.2 µM
- TGI [4]: 40.1 µM
- GI50 [5]: 16.5 µM
- TGI [5]: 31.1 µM
- GI50 [6]: 16.7 µM
- TGI [6]: 32.1 µM
- GI50 [7]: 20.8 µM
- TGI [7]: 51.2 µM
- GI50 [8]: 16.3 µM
- TGI [8]: 32.4 µM

Compound: CCCc1nn(C)c2c(=O)[nH]c(-c3cc(S(=O)(=O)N4CCN(C)CC4)ccc3OCC)nc12
- GI50 [1]: > 100 µM
- TGI [1]: > 100 µM
- GI50 [2]: > 100 µM
- TGI [2]: > 100 µM
- GI50 [3]: > 100 µM
- TGI [3]: > 100 µM
- GI50 [4]: > 100 µM
- TGI [4]: > 100 µM
- GI50 [5]: > 100 µM
- TGI [5]: > 100 µM
- GI50 [6]: > 100 µM
- TGI [6]: > 100 µM
- GI50 [7]: > 100 µM
- TGI [7]: > 100 µM
- GI50 [8]: 53.2 µM
- TGI [8]: > 100 µM

Compound: COc1ccc2c(c1)c(-c1nc(-c3cn(C)c4ccncc34)cs1)cn2C
- GI50 [1]: 1.94 µM
- TGI [1]: 3.68 µM
- GI50 [2]: 2.07 µM
- TGI [2]: 4.4 µM
- GI50 [3]: 2.52 µM
- TGI [3]: 5.12 µM
- GI50 [4]: 1.59 µM
- TGI [4]: 2.97 µM
- GI50 [5]: 1.77 µM
- TGI [5]: 3.25 µM
- GI50 [6]: 2.1 µM
- TGI [6]: 4.62 µM
- GI50 [8]: 14.7 µM
- TGI [8]: 28 µM

Compound: Oc1ccccc1-c1nn(CNc2ccc(Cl)cc2)c(=S)o1
- GI50 [1]: 25.7 µM
- TGI [1]: > 100 µM
- GI50 [2]: 9.2 µM
- TGI [2]: > 100 µM
- GI50 [3]: > 100 µM
- TGI [3]: > 100 µM
- GI50 [4]: 3.21 µM
- TGI [4]: > 100 µM
- GI50 [5]: 23.8 µM
- TGI [5]: > 100 µM
- GI50 [7]: > 100 µM
- TGI [7]: > 100 µM

Compound: CC1=CCC2CC1C(C(=O)c1c[nH]c3ccccc13)=NC2(C)C (centres undefined)
- TGI [1]: > 100 µM
- TGI [2]: > 100 µM
- TGI [3]: > 100 µM
- TGI [4]: > 100 µM
- TGI [5]: > 100 µM
- TGI [6]: > 100 µM
- TGI [7]: > 100 µM

Compound: Cc1ccc2c(C(C[N+](=O)[O-])c3ccccc3)c(-c3ccccc3)[nH]c2c1 (centres undefined)
- GI50 [1]: 30.1 µM
- TGI [1]: > 95 µM
- GI50 [2]: 73.3 µM
- TGI [2]: > 95 µM
- GI50 [3]: 33.8 µM
- TGI [3]: > 95 µM
- GI50 [4]: 4.1 µM
- TGI [4]: 29.2 µM
- GI50 [5]: 22.8 µM
- TGI [5]: > 95 µM
- GI50 [6]: 42.4 µM
- TGI [6]: > 95 µM
- GI50 [7]: 36.8 µM
- TGI [7]: > 95 µM
- GI50 [8]: 2.87 µM
- TGI [8]: 43.6 µM

Compound: COc1cc2nc(Nc3cccc(Cl)c3)nc(N)c2cc1OC
- GI50 [1]: 4.09 µM
- TGI [1]: 15.5 µM
- GI50 [2]: 6.41 µM
- TGI [2]: 19.9 µM
- GI50 [3]: 18.1 µM
- TGI [3]: 32.7 µM
- GI50 [4]: 2.81 µM
- TGI [4]: 9.71 µM
- GI50 [5]: 10.2 µM
- TGI [5]: 22.8 µM
- GI50 [6]: 10.7 µM
- TGI [6]: 26.3 µM
- GI50 [7]: 2.11 µM
- TGI [7]: 5.34 µM
- GI50 [8]: 17.4 µM
- TGI [8]: 32.3 µM

Compound: OC1CC2CCC(C1)N2CCCN1c2ccccc2Sc2ccc(Cl)cc21 (centres undefined)
- TGI [1]: 3.25 µM
- TGI [2]: 6.23 µM
- TGI [3]: 11.6 µM
- TGI [4]: 3.31 µM
- TGI [5]: 3.89 µM
- TGI [6]: 13.6 µM
- TGI [7]: 4.42 µM
- TGI [8]: 5.23 µM

Compound: CC1SC(c2ccccc2Cl)N(NC(=O)C(O)c2ccccc2)C1=O (centres undefined)
- GI50 [1]: 66.9 µM
- TGI [1]: > 100 µM
- GI50 [2]: > 100 µM
- TGI [2]: > 100 µM
- GI50 [4]: > 100 µM
- TGI [4]: > 100 µM
- GI50 [5]: > 100 µM
- TGI [5]: > 100 µM
- GI50 [6]: > 100 µM
- TGI [6]: > 100 µM
- GI50 [7]: 45 µM
- TGI [7]: > 100 µM
- GI50 [8]: > 100 µM
- TGI [8]: > 100 µM
